The target of series [1] is T1, serotonine (5-HT) reuptake in synaptosomes (Rattus norvegicus, UniProt P31652).
T1 construct: in synaptosomes as described in WO 97/16451; from tissue
The series can be described thus: Inhibition of 5-HT reuptake in synaptosomes. The format is biochemical. Particulars: 3H-5-HT, read-out: 5-HT-uptake IC50. As for the experimental part:
(§1) Compounds were tested for their ability to inhibit the reuptake of the monoamine neurotransmitters dopamine (DA) noradrenaline (NA) and serotonine (5-HT) in synaptosomes as described in WO 97/16451 (NeuroSearch A/S).
(§2) The test values are given as IC50 (the concentration (μM) of the test substance which inhibits the specific binding of ^3H-DA, ^3H-NA, or ^3H-5-HT by 50%).

Series [2] addresses T2, dopamine (DA) reuptake in synaptosomes (Rattus norvegicus, UniProt P23977).
T2 construct: in synaptosomes as described in WO 97/16451; from tissue
The series can be described thus: Inhibition of DA reuptake in synaptosomes. It is filed as biochemical. Particulars: 3H-DA, read-out: DA-uptake IC50. The protocol: as §1, §2

Series [3] concerns the target T3, noradrenaline (NA) reuptake in synaptosomes (Rattus norvegicus, UniProt Q63380).
T3 construct: in synaptosomes as described in WO 97/16451; from tissue
The series can be described thus: Inhibition of NA reuptake in synaptosomes. It is filed as biochemical. The settings on record: 3H-NA, read-out: NA-uptake IC50. As for the experimental part:
as §1, §2

The results in this text go back to patent US20110053984A1, “NOVEL 4-BENZHYDRYLOXY-TETRAALKYL-PIPERIDINE DERIVATIVES AND THEIR USE AS MONOAMINE NEUROTRANSMITTER RE-UPTAKE INHIBITORS” (NeuroSearch A/S, priority 2008, published 2011).

pIC50: −log10 of the molar value. Structures can show the parent of a compound that is named as a salt. Some results are limits rather than exact numbers.

T2 sequence (P23977 whole entry): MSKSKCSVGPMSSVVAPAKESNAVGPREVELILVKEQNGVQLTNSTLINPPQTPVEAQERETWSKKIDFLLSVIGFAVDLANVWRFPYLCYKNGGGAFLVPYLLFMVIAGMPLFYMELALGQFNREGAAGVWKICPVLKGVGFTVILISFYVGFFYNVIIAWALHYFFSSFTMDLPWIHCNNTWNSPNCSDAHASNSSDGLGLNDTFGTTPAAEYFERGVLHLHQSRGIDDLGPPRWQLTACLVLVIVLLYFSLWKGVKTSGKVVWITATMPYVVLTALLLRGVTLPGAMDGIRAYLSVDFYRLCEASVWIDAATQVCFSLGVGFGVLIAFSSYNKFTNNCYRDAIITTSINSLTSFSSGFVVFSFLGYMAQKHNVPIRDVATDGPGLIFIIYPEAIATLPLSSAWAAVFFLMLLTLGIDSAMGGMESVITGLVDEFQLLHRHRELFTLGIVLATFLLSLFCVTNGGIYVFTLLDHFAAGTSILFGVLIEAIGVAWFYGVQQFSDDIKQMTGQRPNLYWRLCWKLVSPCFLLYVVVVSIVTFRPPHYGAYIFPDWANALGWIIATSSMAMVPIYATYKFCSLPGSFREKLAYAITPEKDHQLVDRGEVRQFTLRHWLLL
T1 sequence (P31652 whole entry): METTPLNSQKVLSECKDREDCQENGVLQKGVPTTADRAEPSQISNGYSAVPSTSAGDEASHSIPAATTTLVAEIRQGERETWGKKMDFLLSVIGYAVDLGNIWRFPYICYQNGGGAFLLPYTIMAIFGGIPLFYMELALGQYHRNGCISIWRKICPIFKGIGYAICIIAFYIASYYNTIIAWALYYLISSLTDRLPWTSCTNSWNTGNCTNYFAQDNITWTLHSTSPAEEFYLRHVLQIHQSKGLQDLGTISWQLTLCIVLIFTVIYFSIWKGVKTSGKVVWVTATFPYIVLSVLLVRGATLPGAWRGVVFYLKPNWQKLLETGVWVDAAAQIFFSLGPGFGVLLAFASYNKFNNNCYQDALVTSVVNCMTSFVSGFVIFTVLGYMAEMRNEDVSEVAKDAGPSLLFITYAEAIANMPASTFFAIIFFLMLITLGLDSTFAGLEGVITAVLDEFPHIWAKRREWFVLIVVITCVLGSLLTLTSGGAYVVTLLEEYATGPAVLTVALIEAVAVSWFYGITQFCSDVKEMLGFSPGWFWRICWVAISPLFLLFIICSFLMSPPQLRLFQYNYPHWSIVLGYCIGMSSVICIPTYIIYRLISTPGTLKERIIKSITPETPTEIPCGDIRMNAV
T3 sequence (Q63380 1-617): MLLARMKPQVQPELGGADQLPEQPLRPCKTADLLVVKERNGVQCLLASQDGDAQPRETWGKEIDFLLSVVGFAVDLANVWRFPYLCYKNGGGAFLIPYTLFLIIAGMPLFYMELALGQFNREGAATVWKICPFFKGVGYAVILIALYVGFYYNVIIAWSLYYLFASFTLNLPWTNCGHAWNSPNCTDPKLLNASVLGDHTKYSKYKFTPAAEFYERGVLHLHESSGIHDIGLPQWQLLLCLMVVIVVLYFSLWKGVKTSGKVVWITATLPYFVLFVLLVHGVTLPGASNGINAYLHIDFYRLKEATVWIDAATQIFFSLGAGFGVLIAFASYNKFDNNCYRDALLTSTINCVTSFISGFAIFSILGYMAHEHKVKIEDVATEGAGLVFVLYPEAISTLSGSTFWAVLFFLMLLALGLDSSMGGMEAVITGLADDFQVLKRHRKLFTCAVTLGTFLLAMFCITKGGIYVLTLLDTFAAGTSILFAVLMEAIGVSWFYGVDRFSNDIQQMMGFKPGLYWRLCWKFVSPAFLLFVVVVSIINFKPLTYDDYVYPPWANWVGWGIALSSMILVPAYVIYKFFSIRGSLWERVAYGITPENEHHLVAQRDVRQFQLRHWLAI

A word on the melting point: it is the temperature of the solid-liquid transition. In turn, `CC1(C)CC(OC(c2ccccc2)c2ccccc2)CC(C)(C)N1` (as salt: hydrochloric acid salt) [4-Benzhydryloxy-2,2,6,6-tetramethyl-piperidine] registered a melting point of 184.1 to 185.9 °C.
For the molecule `CC1(C)CC(OC(c2ccc(F)cc2)c2ccc(F)cc2)CC(C)(C)N1` (as salt: hydrochloric acid salt) [4-[Bis-(4-fluoro-phenyl)-methoxy]-2,2,6,6-tetramethyl-piperidine], the melting point was 242 to 265 °C.
For orientation: pIC50 means the IC50 on a negative log10 scale, so that one unit is a factor of ten. Take `CC1(C)CC(OC(c2ccccc2)c2ccccc2)CC(C)(C)N1` [4-Benzhydryloxy-2,2,6,6-tetramethyl-piperidine]: the pIC50 in series [1] was 4.59; in series [2], 6.40; in series [3], 7.22.
Turning to `CC1(C)CC(OC(c2ccc(F)cc2)c2ccc(F)cc2)CC(C)(C)N1` [4-[Bis-(4-fluoro-phenyl)-methoxy]-2,2,6,6-tetramethyl-piperidine], the pIC50 in series [1] is less than 6.00; in series [2], 7.42; in series [3], 6.23.
